Assays:
[1] = tested on: A549 xenograft tumor; experiment: In vivo anti-tumor activity, A549 xenograft; parameters: species or system BALB/c nude mice; conditions: for average weight of the excised tumors: control group 1.802 g; for tumor growth reduction versus vehicle at end of observation: intraperitoneal, every other day
Description: Mice were subcutaneously inoculated with injections of 5.0 × 10^6 cells/nude mice. After 12–14 days, tumor sizes were determined using micrometer calipers, and then nude mice with similar tumor volume (~100 mm^3, eliminate mice with tumors that are too large or too small) were randomly divided them into four groups (with six nude mice/group). […] Both drugs, as well as the vehicle control, were administered every other day for the entire period of observation.
Male BALB/c nude mice, five weeks old and weighing 18–22 g, were supplied by Shanghai Laboratory Animal Limited Company. The mice were raised in air-conditioned rooms under controlled lighting (12 h light-dark cycle at 24 °C) and were fed with standard laboratory food and water ad libitum. Before injection into the mice, the A549 cells were harvested by trypsinization and washed three times with cold serum-free medium and then injected in a total volume of 0.1 mL using a 1 mL latex-free syringe (BD) within 30 min of harvest. Mice were inoculated subcutaneously with A549 cells (5.0 × 10^6) on their shoulders. […] The control group received 0.9% normal saline. Tumor size was measured once every 2 days in two per-pendicular dimensions with Vernier calipers and converted to tumor volume (TV) using the formula: (ab^2)/2, where a and b refer to the longer and shorter dimensions, respectively. The body weight of the animals was measured twice a week to assess toxicity of the treatments at the same time as the tumor dimension measurement and the mortality was monitored daily. After the treatments for eight weeks, the animals were euthanized by cervical dislocation. This study conformed to the Guide for the Care and Use of Laboratory Animals as published by the US National Institutes of Health and was approved by the Institutional Ethics Review Board of Nanjing University.

[2] = tested on: Cyclin B1, Cdc25c, Cdc2, P21 in A549 cells; experiment: Western blot of G2/M-related proteins; type: cell-based, human; conditions: A549, 0.5-2.0 μM 48 h; 3.0 μM 12-48 h
Description: Total cellular proteins are extracted with lysis buffer (50 mmol/l Tris [pH 7.4], 150 mmol/l NaCl, 1% Triton X-100, 1% deoxycholicphenyl methylsulfonyl fluoride, 1 mg/ml aprotinin, 5.0 mmol/l sodium pyrophosphate, […] leupeptin, 0.1 mmol/l phenylmethylsulfonyl fluoride, and 1 mmol/l DTT). Protease inhibitors are added immediately before use. The cells are harvested at the end of treatment and extracted for western blot analysis as described previously. After washing twice with PBS, the cultured cells were collected and lysed in lysis buffer (100 mmol/l Tris-Cl, pH 6.8, 4% (m/v) SDS, 20% (v/v) glycerol, 200 mmol/l β-mercaptoethanol, 1 mmol/l phenylmethylsulfonyl fluoride, and […] aprotinin). The lysates were centrifuged at 13,000 × g for 15 min at 4 °C. The concentration of total proteins was measured using the BCA assay method with Varioskan spectrofluorometer and spectrophotometer (Thermo) at 562 nm. Protein samples were separated with 15% SDS-PAGE and transferred onto the polyvinyldifluoride (PVDF) membranes (Millipore, IPVH 304 F0). Immune complexes were formed by incubation of proteins with primary antibodies overnight at 4 °C followed by IRDye^TM 800 conjugated second antibody for 1 hour at 37 °C. Immunoreactive protein bands were detected with an Odyssey Scanning System (LI-COR Biosciences, 9201-03). Antibodies: primary antibodies of cyclin B1, Cdc2, p-Cdc2 (Thr14/Tyr15), Cdc25C, and p21WAF1/Cip1 were all obtained from EPITOMICS (Abcam, Cambridge, UK); antibodies of Bax and Bcl-2 were obtained from Bioworld (Bioworld Technology, Inc., MN, USA); antibodies of caspase-3, and PARP were all obtained from Santa Cruz (Santa Cruz, CA); and antibody of GAPDH was from Boster (Wuhan, China). The secondary antibodies peroxidase-conjugated affinipure Goat Anti-Mouse IgG (H + L) (111-035-003), peroxidase-conjugated affinipure Goat Anti-Rabbit IgG (H + L) (111-035-003) were obtained from Jackson Immuno Research Laboratories, Inc. (USA).

[3] = tested on: Tubulin isolated from porcine brain tissue; experiment: Tubulin polymerization assay (kit, absorbance 340 nm); type: biochemical; conditions: 37 °C
Description: Tubulin polymerization was determined with the tubulin polymerization assay kit (Cytoskeleton, Denver, CO which was purchased from Cytoskeleton, Beyotime, China. Tubulin isolated from porcine brain tissue was used in this commercial kit.) It is based on the principal that light is scattered by microtubules to an extent that is proportional to the concentration of the microtubule polymer. Compounds that interact with tubulin will alter the polymerization of tubulin, and this can be detected using a spectrophotometer. Tubulin polymerization dynamics was monitored through measuring the change of absorbance at 340 nm every 2 min for 30 min at 37 °C on a spectrophotometer (Perkin-Elmer).

[4] = tested on: A549 cells; experiment: Apoptosis assay, Annexin V-FITC/PI flow cytometry; type: cell-based, human; conditions: A549, 0.8 μM
Description: The percentages of apoptotic cells were estimated by staining with Annexin-V-FITC and with a PI Apoptosis Detection Kit (KGA105, Keygen biotech, China) according to the manufacturer’s instructions with some modifications. In brief, collected cells were washed once with PBS and subsequently washed once with binding buffer, and then stained with Annexin V-FITC and propidium iodide (PI) in the binding buffer for 20 min at room temperature in the dark. Apoptotic cells were quantified using a […] plotting at least 10,000 events per sample. To quantify the data, the frequencies in all quadrants were analyzed using flowjo 7.6.1 software. Both early apoptotic (Annexin V-positive, PI-negative) and late apoptotic (double positive of Annexin V and PI) cells were detected.

[5] = tested on: 293T, Macrophage, and L02; experiment: MTT assay on non-cancer cell lines; type: cell-based, human
[6] = tested on: A549 cells; experiment: Detection of intracellular ROS (DCFH-DA flow cytometry); type: cell-based, human; conditions: A549, versus control cells and positive control
Description: Intracellular ROS production was measured by use of active oxygen species assay kit (K0111, Beyotime, China). […] After 30 min of incubation in the darkness, cells were washed with DMEM for three times, and then fluorescent intensity was measured by the flow cytometer with excitation and emission wavelengths of 488 and 525 nm, respectively.

COc1cc(/C=N/NC(=O)c2cn(Cc3ccccc3)c3ccccc23)cc(OC)c1OC [Compound 7]
average weight of the excised tumors ([1]; 20 mg/kg group): 0.951 g
tumor growth reduction versus vehicle at end of observation ([1]; 20 mg/kg): 47%
average weight of the excised tumors ([1]; 30 mg/kg group): 0.553 g
tumor growth reduction versus vehicle at end of observation ([1]; 30 mg/kg): 70%
cdc25c expression [2]: down-regulated in a dose-dependent and time-dependent manner
cyclinB1 expression [2]: down-regulated in a dose-dependent and time-dependent manner
p21 expression [2]: increased
tubulin polymerization (in words) ([3]; 1.0 μM): slightly inhibiting
tubulin polymerization (in words) ([3]; 5.0 μM): nearly completely blocked
early apoptosis (Q3) ([4]; 12 h): 1.84%
total percentage of early and late apoptotic cells ([4]; 24 h): 33.05%
total percentage of early and late apoptotic cells ([4]; 48 h): 77.2%
cytotoxic effects on three normal human cells (in words) [5]: minimal
intracellular ROS production [6]: induced the production of significant amounts of ROS
